Assay results: patent US20020143034A1, “Aminoalcohol derivatives and their use as beta 3 adrenergic agonists” (Fujisawa Pharmaceutical Co. Ltd., priority 1998, published 2002)

System: anesthetized dog
Test: Effect on the increase in intravesical pressure induced by carbachol in anesthetized dog
Format: in vivo
Details: 0.32 mg/kg intra-duodenal, 30 minutes before carbachol (1.8 μg/kg); female Beagle dogs under halothane anesthesia; N = 2; Control 9.3
Method: Effect on the increase in intravesical pressure induced by carbachol in anesthetized dog
Female Beagle dogs weighing 8.0-15.0 kg were fasted for 24 hours and maintained under halothane anesthesia. A 12F Foley catheter was lubricated with water soluble jelly, inserted into the urethral orifice and advanced approximately 10 cm until the balloon tip was placed well inside the bladder. The balloon was then inflated with 5 ml of room air and catheter slowly withdrawn just part the first resistance that is felt at the bladder neck. Urine was completely drained out thought the catheter, and 30 ml of biological saline was infused. The catheter was connected to pressure transducer, and intravesical pressure was continuously recorded. The test compound was injected by intra-duodenal route at 30 minutes before the administration of carbachol (1.8 μg/kg).

## COc1ccc2c(Oc3ccc(C[C@@H](CO)NC[C@H](O)COc4ccccc4)cc3)ccnc2c1 [Example 78, 2(S)-2-[(2S)-2-hydroxy-3-(phenoxy)propylamino]-3-[4-(7-methoxyquinolin-4-yloxy)phenyl]propan-1-ol]
  Increase in intravesical pressure: 5.5 mmHg
